Like-named read-outs stand apart in the source and are kept apart here.
Assays:
[1] = tested on: THP-1 cells; test: Cell death as loss of membrane integrity, YOYO-1 uptake; format: cell-based; settings: Homo sapiens, 72 h; THP-1 cells, 3 days, YOYO-1 uptake; read-out: LC50 (the source's name)
From the text: (§1) (a) Table 8 compares the cytostatic and cytotoxic effects of Compound A to three previously identified 1H-cyclopenta[b]benzofuran lignans that lack the dioxanyloxy group at the C6-position. The reference compounds are: Rocaglaol (Reference Compound 1) (Ohse et al., J Nat Prod, 1996, 59(7):650-52); 4′-Demethoxy-3′,4′-methylenedioxyrocaglaol (Reference Compound 2) and Methyl 4′-demethoxy-3′,4′-methylenedioxyrocaglate (Reference Compound 3) (Lee et al., Chem Biol Interact, 1998, 115(3):215-28).

[2] = tested on: A549 cells; test: as above; format: cell-based; settings: Homo sapiens, 72 h; A549 cells, 3 days, YOYO-1 uptake; read-out: LC50 (the source's name)
From the text: as §1

[3] = tested on: A549 cells; test: Effect on camptothecin- and paclitaxel-induced cytotoxicity, YOYO-1 exclusion; format: cell-based, human; settings: A549, 10 nM Compound A, 3 days, drugs at up to 2000-fold excess
Protocol: A549 cells in 96 well plates were cultured for 3 days in the presence or absence of 10 nM Compound A together with the indicated concentrations of (A) camptothecin or (B) paclitaxel. Loss of membrane integrity was then assessed by the addition of the fluorescent DNA-binding dye YOYO-1 and the increased fluorescence accompanying cell death measured using a fluorescent plate reader.
To further examine the cell cycle effects of Compound A a cytostatic concentration of this compound was combined together with other anti-cancer agents known to act at specific points in the cell cycle to see if Compound A could perturb their cell cycle-dependent effects. Cell viability was assayed after 3 days by measuring exclusion of the fluorescent DNA-binding dye YOYO-1. (Becker et al., Anal Biochem, 1994, 221(1):78-84). A549 cells were treated with 10 nM non-cytotoxic dose of Compound A in the presence of increasing concentrations of camptothecin and paclitaxel. Camptothecin is an inhibitor of DNA topoisomerase 1, an enzyme required for DNA replication, and results in pertubation of the S phase of the cell cycle with subsequent cell death due to activation of an S phase checkpoint (Darzynkiewicz et al., Ann N Y Acad Sci, 1996, 803:93-100). […]

[4] = tested on: THP-1 cells; test: Acute general protein biosynthesis inhibition, [14C] leucine incorporation, THP-1 cells; format: cell-based, human; settings: 1 hour pretreatment + 2 hours label, read-out: IC50 Protein synthesis
[5] = tested on: THP-1 monocytic leukemia cells; test: Differentiation of THP-1 leukemic cells, morphology by phase contrast microscopy; format: cell-based, human; settings: THP-1, 10 nM, prolonged exposure (4 days)
Protocol: THP-1 cells were cultured for 4 days in the presence or absence of 10 nM Compound A as indicated. Where shown cells were also treated with IFNγ (100 ng/ml) (3 days) or with PMA (0.1 μM) (4 days) in the presence or absence of Compound A. Images are of cells visualised by phase contrast microscopy (magnification×200).
This is a morphology highly characteristic of mature macrophages and similar morphological effects were observed when the cells were treated with other known inducers of macrophage differentiation including interferon-γ (IFNγ) or phorbol 12-myristate 13-acetate (PMA). To investigate this further the effects of Compound A on HL60 human promyelocytic leukemic cells (Collins, et al, Nature, 1977, 270:347-9) were examined (Table 11). This widely used cell line is well characterised as a model of human myelomonocytic differentiation (Collins, Blood, 1987, 70(5):1233-44). In this experiment monocytic differentiation was quantitated by measuring CD14 surface antigen expression by flow cytometric analysis CD14, all LPS-binding protein, is expressed on the surface of cells of the myelomonocytic lineage and is normally expressed at very low levels in undifferentiated HL60 cells (Ferrero et al., Blood, 1983, 61(1):171-9).

[6] = tested on: A549; test: Cytostatic activity, relative cell number by YOYO-1 DNA dye; format: cell-based, human
Protocol: (b) Compound A was assessed for cytotoxic and cytostatic activity against a panel of cell lines derived from a variety of human tumour types in addition to THP-1 and A549 cells (Table 5). These included K562 leukemic cells (Lozzio and Lozzio, 1975, Blood 45:321-34), PC3 prostate tumour cells (Kaighn et al., 1979, Invest. Urol. 17:16-23) and SF268 glioblastoma cells (Westphal et al, 1985, Biochem. Biophys. Res. Commun., 132:284-9). […] However, the cytotoxic potency of Compound A increased dramatically after 6 days of culture for the K562, A549 and SF268 cells.

[7] = tested on: A549 cells; test: DNA content analysis (cell cycle and viability) of A549 cells, 6 days; format: cell-based, human; settings: A549, 10 nM
Protocol: (§2) A549 cells were cultured for 6 days with the indicated concentration of Compound A or 1 μM paclitaxel then collected and fixed in 70% ethanol prior to staining with propidium iodide and DNA content determined by flow cytometry. The numbers indicate the % of cells in the various cell cycle phases relative to all cells with ≧2N DNA content and also the % dead cells (ie. subdiploid≦2N cells) to the left of the marker that arose during the culture period.
To help identify a potential mechanism for the effects of Compound A, DNA content analysis was performed to determine where in the cell cycle it exerted its effect (FIG. 4). […] This contrasts to the effects of paclitaxel a drug known to act selectively at the G2/M phases of the cell cycle (FIG. 4). As the concentration of Compound A was increased and its cytotoxic effects became evident the proportion of cells in the S and G2/M phases decreased with a corresponding rise in cells in G0/G1 phases. […] Thus, compared to THP-1 cells (see FIG. 2) higher concentrations of Compound A are required to inhibit progression through the G0/G1 phases of the cell cycle in A549 cells.

[8] = tested on: THP-1 cells; test: DNA content analysis (cell cycle and viability) of THP-1 cells; format: cell-based, human; settings: THP-1, 10 nM, 2 days
Protocol: as §2, with “THP-1” for “A549”, “2” for “6”, “1000 nM” for “1 μM”, “marker (the vertical line)” for “marker”

## COC(=O)[C@H]1[C@@H](O)[C@@]2(O)c3c(OC)cc(OC4OC(C(O)CO)COC4OC)cc3O[C@@]2(c2ccc(OC)cc2)[C@@H]1c1ccccc1 (single isomer, unassigned) [Compound A]
[1]
  CC50: 0.015 µM
[2]
  CC50: 0.514 µM
[3]
  effect on cytotoxicity of camptothecin and paclitaxel: significantly reduced the cytotoxic effects of both camptothecin and paclitaxel
[4]; Homo sapiens, THP-1, THP-1 cells
  IC50: ~0.03 µM
[4]; THP-1 cells
  IC50: 0.027 µM
[5]
  morphology (macrophage differentiation): accumulation of cells that adhered to the plastic and exhibited numerous pseudopodia
[6]; Homo sapiens, A549, 72 h, read-out: GI50 (3 day cultures), A549, lung
  GI50: 0.007 µM
[6]; read-out: GI50 (3 day cultures), A549, lung
  GI50: 0.013 µM
[7]
  cell cycle distribution: a minor decline in the proportion of cells in the G0/G1 phases of the cell cycle with a concomitant increase in cells in the G2/M phases
[8]
  cell cycle phase accumulation: caused cells to accumulate in the G0/G1 phases of the cell cycle
[8]; untreated 7%
  accumulation of dead cells: 17%

Reference: US6710075B2, “Therapeutic compounds and methods” (The Government of the State of Sarawak, Malaysia, priority 2000, dated 2004)
